Target: T1, S1P5 (Homo sapiens, UniProt Q9H228, G231K/G234L/INS226[…]/INS240[…]/P227A/P230V/R224A/R225D/R229Q/R239A/S237M/T232D/T236K/T238R)
T1 construct: The C-terminus was truncated after Val321; hemagglutinin signal peptide (HA; […]) (N); FLAG-tag (N); Ala-Gly-Arg-Ala linker (N); PreScission cleavage site (C); 10× His tag (C, cleaved yes); made in house; host or cells: Sf9 insect cells (baculovirus, Bac-to-Bac)
Assay: Microscale fluorescent (CPM) thermal stability assay
Format: binding
Settings: CPM fluorescence thermal shift; purified S1P5 crystallization construct
Experimental: Cells were thawed and lysed by repetitive washes (Dounce homogenization on ice, and centrifugation at 128,600×g for 30 min at 4 °C) in hypotonic buffer (10 mM HEPES pH 7.5, 20 mM KCl, and 10 mM MgCl2) and high osmotic buffer (10 mM HEPES pH 7.5, 20 mM KCl, 10 mM MgCl2, and 1 M NaCl) with an addition of protease inhibitor cocktail [PIC; 500 µM 4-(2-aminoethyl)benzenesulfonyl fluoride hydrochloride (Gold Biotechnology), 1 µM E-64 (Cayman Chemical), 1 µM leupeptin (Cayman Chemical), 150 nM aprotinin (A.G. Scientific)] with the ratio of 50 μl per 100 ml of lysis buffer. […] Stability and stabilizing effect of the ligand were measured by microscale fluorescent thermal stability assay[55] […]
Microscale fluorescent thermal stability assay[55] was conducted using a CPM dye (7-Diethylamino-3-(4-maleimidophenyl)-4-methylcoumarin, Invitrogen) dissolved in DMF at 10 mM. […] 1 µg of the target protein was added to 50 µL of working buffer (25 mM HEPES, 250 mM NaCl, 10%v/v glycerol, 0.05%w/v DDM, 0.01%w/v CHS) with CPM, and the melting curve was recorded on a Rotor-Gene Q real-time PCR cycler (Qiagen) using a temperature ramp from 28 to 98 °С with 2 °С/min rate. The fluorescence signal was measured in the Blue channel (excitation 365 nm, emission 460 nm), and the melting temperature was calculated as the maximum of the fluorescence signal derivative with respect to temperature.

T1 sequence (Q9H228 other isoform, or with tags, fused parts or gaps with the stated changes): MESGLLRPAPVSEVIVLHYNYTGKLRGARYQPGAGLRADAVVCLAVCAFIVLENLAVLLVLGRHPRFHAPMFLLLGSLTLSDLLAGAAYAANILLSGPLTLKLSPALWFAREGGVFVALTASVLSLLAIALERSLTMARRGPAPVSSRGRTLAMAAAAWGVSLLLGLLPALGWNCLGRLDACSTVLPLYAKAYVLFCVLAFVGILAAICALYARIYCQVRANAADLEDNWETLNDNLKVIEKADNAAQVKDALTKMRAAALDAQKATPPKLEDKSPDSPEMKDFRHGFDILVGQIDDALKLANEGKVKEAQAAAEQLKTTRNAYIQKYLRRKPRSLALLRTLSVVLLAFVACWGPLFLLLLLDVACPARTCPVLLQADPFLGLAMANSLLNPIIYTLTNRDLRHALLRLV

O=C(O)CCCN1CCc2cccc(OCCc3cccc4ccccc34)c2CC1 [ONO-5430608, 4-{6-[2-(1-naphthyl)ethoxy]-1,2,4,5-tetrahydro-3H-3-benzazepin-3-yl} butanoic acid]
increase of the thermal stability of S1P5: 19 °C
